Data: patent publication US10689414B2 (Agios Pharmaceuticals, Inc., priority 2013, dated 2020)

test system: U87MG cells; test: Cellular assay, inhibition of 2-HG production in U87MG cells; type: cell-based; details: Homo sapiens, U-87 MG, 48 h
Protocol: Cells (HT1080 or U87MG) are grown in T125 flasks in DMEM containing 10% FBS, 1× penicillin/streptomycin and 500 ug/mL G418 (present in U87MG cells only). They are harvested by trypsin and seeded into 96 well white bottom plates at a density of 5000 cell/well in 100 ul/well in DMEM with 10% FBS. […] Cells are incubated overnight at 37° C. in 5% CO2. The next day test compounds are made up at 2× the final concentration and 100 ul are added to each cell well. The final concentration of DMSO is 0.2% and the DMSO control wells are plated in row G. The plates are then placed in the incubator for 48 hours. […] The cell plate is placed back in the incubator for another 24 hours. At 72 hours post compound addition, 10 mL/plate of Promega Cell Titer Glo reagent is thawed and mixed. The cell plate is removed from the incubator and allowed to equilibrate to room temperature. Then 100 ul of Promega Cell Titer Glo reagent is added to each well of media. The cell plate is then placed on an orbital shaker for 10 minutes and then allowed to sit at room temperature for 20 minutes. The plate is then read for luminescence with an integration time of 500 ms.

`O=C(NC1CCC(F)(F)CC1)[C@H](c1ccccc1Cl)N(C(=O)[C@@H]1COC(=O)N1c1ncccn1)c1cccc(F)c1` [Compound 76, (S)—N—((S)-1-(2-Chlorophenyl)-2-((4,4-difluorocyclohexyl)amino)-2-oxoethyl)-N-(3-fluoro-phenyl)-2-oxo-3-(pyrimidin-2-yl)oxazolidine-4-carboxamide] and `N#Cc1ccnc(N2C(=O)CC[C@H]2C(=O)N(c2cccc(F)c2)[C@H](C(=O)NC2CCC(F)(F)CC2)c2ccccc2Cl)n1` [Compound 85, (S)—N—((S)-1-(2-Chlorophenyl)-2-((4,4-difluorocyclohexyl)amino)-2-oxoethyl)-1-(4-cyanopyrimidin-2-yl)-N-(3-fluorophenyl)-5-oxopyrrolidine-2-carboxamide] cannot be ordered by IC50: < 100 nM for the first, < 100 nM for the second.

`N#Cc1ccnc(N2C(=O)OC[C@H]2C(=O)N(c2cccc(F)c2)[C@H](C(=O)NC2CC(F)(F)C2)c2ccccc2Cl)c1` [Compound 77, (S)—N—((S)-1-(2-Chlorophenyl)-2-(3,3-difluorocyclobutylamino)-2-oxoethyl)-3-(4-cyanopyri-din-2-yl)-N-(3-fluorophenyl)-2-oxooxazolidine-4-carboxamide] and `N#Cc1ccnc(N2C(=O)NC[C@H]2C(=O)N(c2cccc(F)c2)[C@H](C(=O)NC2CC(F)(F)C2)c2ccccc2Cl)c1` [Compound 80, (S)—N—((S)-1-(2-chlorophenyl)-2-(3,3-difluorocyclobutylamino)-2-oxoethyl)-3-(4-cyanopyridin-2-yl)-N-(3-fluorophenyl)-2-oxoimidazolidine-4-carboxamide] cannot be ordered by IC50: < 100 nM for the first, < 100 nM for the second.

`CN1C[C@@H](C(=O)N(c2cccc(F)c2)C(C(=O)NC2CC(F)(F)C2)c2ccccc2Cl)N(c2cc(C#N)ccn2)C1=O` (stereo partly drawn) [Compound 79, (4S)—N-(1-(2-chlorophenyl)-2-((3,3-difluorocyclobutyl)amino)-2-oxoethyl)-3-(4-cyanopyridin-2-yl)-N-(3-fluorophenyl)-1-methyl-2-oxoimidazolidine-4-carboxamide] and `CC(=O)N1CC(=O)N(c2cc(C#N)ccn2)[C@H](C(=O)N(c2cccc(F)c2)[C@H](C(=O)NC2CC(F)(F)C2)c2ccccc2Cl)C1` [Compound 92, (S)-4-Acetyl-N—((S)-1-(2-chlorophenyl)-2-(3,3-difluorocyclobutylamino)-2-oxoethyl)-1-(4-cyanopyridin-2-yl)-N-(3-fluorophenyl)-6-oxopiperazine-2-carboxamide] cannot be ordered by IC50: < 100 nM for the first, < 100 nM for the second.

`N#Cc1ccnc(N2C(=O)CC[C@H]2C(=O)N(c2cc(F)cc(F)c2)[C@H](C(=O)NC2CCC(F)(F)CC2)c2ccccc2Cl)c1` [Compound 81, (2S)—N-(1-(2-Chlorophenyl)-2-(4,4-difluorocyclohexylamino)-2-oxoethyl)-1-(4-cyanopyridin-2-yl)-N-(3,5-difluorophenyl)-5-oxopyrrolidine-2-carboxamide] and `N#Cc1ccnc(N2C(=O)CC[C@H]2C(=O)N(c2cc(F)cc(F)c2)[C@H](C(=O)NC2CCC(F)(F)CC2)c2ccccc2Cl)n1` [Compound 87, (S)—N—((S)-1-(2-Chlorophenyl)-2-((4,4-difluorocyclohexyl)amino)-2-oxoethyl)-1-(4-cyanopyrimidin-2-yl)-N-(3,5-difluorophenyl)-5-oxopyrrolidine-2-carboxamide] cannot be ordered by IC50: < 100 nM for the first, < 100 nM for the second.

`N#Cc1ccnc(N2C(=O)CC[C@H]2C(=O)N(c2cccc(F)c2)[C@H](C(=O)NC2CC(F)(F)C2)c2ccccc2Cl)c1F` [Compound 82, (S)—N—((S)-1-(2-Chlorophenyl)-2-((3,3-difluorocyclobutyl)amino)-2-oxoethyl)-1-(4-cyano-3-fluoropyridin-2-yl)-N-(3-fluorophenyl)-5-oxopyrrolidine-2-carboxamide] and `N#Cc1ccnc(N2C(=O)CC[C@H]2C(=O)N(c2cccc(F)c2)[C@H](C(=O)NC2CCC(F)(F)CC2)c2ccccc2Cl)c1F` [Compound 83, (S)—N—((S)-1-(2-Chlorophenyl)-2-((4,4-difluorocyclohexyl)amino)-2-oxoethyl)-1-(4-cyano-3-fluoropyridin-2-yl)-N-(3-fluorophenyl)-5-oxopyrrolidine-2-carboxamide] cannot be ordered by IC50: < 100 nM for the first, < 100 nM for the second.

Compared with `N#Cc1ccnc(N2C(=O)CC[C@H]2C(=O)N(c2cccc(S(N)(=O)=O)c2)[C@H](C(=O)NC2CC(F)(F)C2)c2ccccc2Cl)c1` [Compound 84, (S)—N—((S)-1-(2-Chlorophenyl)-2-(3,3-difluorocyclobutylamino)-2-oxoethyl)-1-(4-cyanopyridin-2-yl)-5-oxo-N-(3-sulfamoylphenyl)pyrrolidine-2-carboxamide], `CS(=O)(=O)c1cccc(N(C(=O)[C@@H]2CCC(=O)N2c2cc(C#N)ccn2)C(C(=O)NC2CCC(F)(F)CC2)c2ccccc2Cl)c1` (stereo partly drawn) [Compound 95, (2S)—N-(1-(2-Chlorophenyl)-2-((4,4-difluorocyclohexyl)amino)-2-oxoethyl)-1-(4-cyanopyridin-2-yl)-N-(3-(methylsulfonyl)phenyl)-5-oxopyrrolidine-2-carboxamide] is lower in IC50: 100 to 500 nM for the first, < 100 nM for the second. The second is the more potent here.

`N#Cc1ccnc(N2C(=O)CC[C@H]2C(=O)N(c2cc(F)cc(F)c2)[C@H](C(=O)NC2CC(F)(F)C2)c2ccccc2Cl)n1` [Compound 86, (S)—N—((S)-1-(2-Chlorophenyl)-2-((3,3-difluorocyclobutyl)amino)-2-oxoethyl)-1-(4-cyanopyrimidin-2-yl)-N-(3,5-difluorophenyl)-5-oxopyrrolidine-2-carboxamide] and `N#Cc1ccnc(N2C(=O)CNC[C@H]2C(=O)N(c2cc(F)cc(F)c2)[C@H](C(=O)NC2CC(F)(F)C2)c2ccccc2Cl)n1` [Compound 99, (S)—N—((S)-1-(2-chlorophenyl)-2-((3,3-difluorocyclobutyl)amino)-2-oxoethyl)-1-(4-cyanopyrimidin-2-yl)-N-(3,5-difluorophenyl)-6-oxopiperazine-2-carboxamide] cannot be ordered by IC50: < 100 nM for the first, < 100 nM for the second.

`N#Cc1ccnc(N2C(=O)CC[C@H]2C(=O)N(c2cc(F)cc(F)c2)[C@H](C(=O)NC2CC(F)(F)C2)c2ccccc2Cl)c1F` [Compound 88, (S)—N—((S)-1-(2-Chlorophenyl)-2-((3,3-difluorocyclobutyl)amino)-2-oxoethyl)-1-(4-cyano-3-fluoropyridin-2-yl)-N-(3,5-difluorophenyl)-5-oxopyrrolidine-2-carboxamide] and `N#Cc1ccnc(N2C(=O)CNC[C@H]2C(=O)N(c2cc(F)cc(F)c2)[C@H](C(=O)NC2CC(F)(F)C2)c2ccccc2Cl)c1` [Compound 100, (S)—N—((S)-1-(2-Chlorophenyl)-2-((3,3-difluorocyclobutyl)amino)-2-oxoethyl)-1-(4-cyanopyridin-2-yl)-N-(3,5-difluorophenyl)-6-oxopiperazine-2-carboxamide] cannot be ordered by IC50: < 100 nM for the first, < 100 nM for the second.

`CC(C)(C)OC(=O)N1CC(=O)N(c2cc(C#N)ccn2)[C@H](C(=O)N(c2cccc(F)c2)[C@H](C(=O)NC2CC(F)(F)C2)c2ccccc2Cl)C1` [Compound 89, (3S)-tert-Butyl 3-((1-(2-chlorophenyl)-2-((3,3-difluorocyclobutyl)amino)-2-oxoethyl)(3-fluorophenyl)carbamoyl)-4-(4-cyanopyridin-2-yl)-5-oxopiperazine-1-carboxylate] and `CCOC(=O)CN1C[C@@H](C(=O)N(c2cccc(F)c2)[C@H](C(=O)NC2CC(F)(F)C2)c2ccccc2Cl)N(c2cc(C#N)ccn2)C1=O` [Compound 94, Ethyl 2-((4S)-4-((1-(2-chlorophenyl)-2-((3,3-difluorocyclobutyl)amino)-2-oxoethyl)(3-fluorophenyl)carbamoyl)-3-(4-cyanopyridin-2-yl)-2-oxoimidazolidin-1-yl)acetate] cannot be ordered by IC50: < 100 nM for the first, < 100 nM for the second.

`N#Cc1ccnc(N2C(=O)CC[C@H]2C(=O)N(c2cncc(F)c2)C(C(=O)NC2CC(F)(F)C2)c2ccccc2Cl)c1` (some centres unmarked) [Compound 91] and `CN1CC(=O)N(c2cc(C#N)ccn2)[C@H](C(=O)N(c2cc(F)cc(F)c2)[C@H](C(=O)NC2CC(F)(F)C2)c2ccccc2Cl)C1` [Compound 101, (S)—N—((S)-1-(2-chlorophenyl)-2-((3,3-difluorocyclobutyl)amino)-2-oxoethyl)-1-(4-cyanopyridin-2-yl)-N-(3,5-difluorophenyl)-4-methyl-6-oxopiperazine-2-carboxamide] cannot be ordered by IC50: < 100 nM for the first, < 100 nM for the second.

`CC(C)(C)OC(=O)N1CC(=O)N(c2nccc(C#N)n2)[C@H](C(=O)N(c2cc(F)cc(F)c2)[C@H](C(=O)NC2CCC(F)(F)CC2)c2ccccc2Cl)C1` [Compound 93, (S)-tert-Butyl 3-(((S)-1-(2-chlorophenyl)-2-((4,4-difluorocyclohexyl)amino)-2-oxoethyl)(3,5-difluorophenyl)carbamoyl)-4-(4-cyanopyrimidin-2-yl)-5-oxopiperazine-1-carboxylate] and `CC(C)(C)OC(=O)N1CC(=O)N(c2nccc(C#N)n2)[C@H](C(=O)N(c2cc(F)cc(F)c2)[C@H](C(=O)NC2CC(F)(F)C2)c2ccccc2Cl)C1` [Compound 98, (3S)-tert-butyl 3-((1-(2-chlorophenyl)-2-((3,3-difluorocyclobutyl)amino)-2-oxoethyl)(3,5-difluorophenyl)carbamoyl)-4-(4-cyanopyrimidin-2-yl)-5-oxopiperazine-1-carboxylate] cannot be ordered by IC50: < 100 nM for the first, < 100 nM for the second.

In the case of `CS(=O)(=O)c1cccc(N(C(=O)[C@@H]2CCC(=O)N2c2nccc(C#N)n2)[C@H](C(=O)NC2CCC(F)(F)CC2)c2ccccc2Cl)c1` [Compound 103, (S)—N—((S)-1-(2C)-2-((4,4-difluorocyclohexyl)amino)-2-oxoethyl)-1-(4-cyanopyrimidin-2-yl)-N-(3-(methylsulfonyl)phenyl)-5-oxopyrrolidine-2-carboxamide], the IC50 is reported as 100 to 500 nM.
